Assay results as given in US6723710B2, “Compositions for inhibiting arginase activity” (The Trustees of the University of Pennsylvania, priority 1997, dated 2004).
Where “and” joins values, the source holds several entries; their conditions need not be identical. Equal entries are not always repeated. Entries after “also recorded” stand apart in the source; their conditions may differ. Where two headings read alike, the source gives them in different places. Blank lines part the entries; values can stand above or below the molecule they belong to.

Assays:
[1] = system: internal anal sphincter (IAS) smooth muscle; assay: NANC nerve-mediated relaxation of IAS smooth muscle strips by electrical field stimulation; set-up: species or system opossum (Didelphis virginiana); settings: for reversal of L-NNA-suppressed IAS relaxation: with L-NNA, L-HO-Arg and ABHA 3×10^−4 molar; for decrease in IAS tension after L-HO-Arg: 3×10^−4 molar
Description: The entire anal canal was isolated carefully by dissection and transferred to a dissecting tray containing oxygenated (95% O2 plus 5% CO2) Krebs' solution. The composition of the Krebs' solution was as follows (in millimolar): NaCl, 118.07; KCl 4.69; […] MgSO4, 1.16; […] NaHCO3, 25 and glucose (Pufahl et al., 1995, Biochemistry 34:1930-1941; […] et al., 1993, Biochem. Biophys. Res. Commun. 196:1558-1565). The anal canal was cleaned of extraneous connective tissue and blood vessels. Following this, the anal canal was opened by making an incision along the longitudinal axis, and was pinned flat with the mucosal side facing up. The mucosa and submucosa were removed by sharp dissection. Circular smooth muscle strips were obtained from the whole circumference of the anal canal and divided into two equal strips (about 1×8 millimeters). Both ends of the muscle strips were secured with silk sutures (4-0: Ethicon Inc., Sommerville, N.J.) and used for the measurement of isometric tension. […] One end of each muscle strip was fixed to the bottom of the muscle bath with a tissue holder and the other end was attached to an isometric force transducer (model FT03; Grass Instruments Co., Quincy, Mass.) in order to measure isometric tension. Smooth muscle tension was recorded using a […] recorder (model […]; Beckman Instruments, Schiller Park, Ill.). […] J. Physiol. 255:[…]-[…]). Only those smooth muscle strips that developed spontaneous and steady tension and relaxed in response to electrical field stimulation (EFS) were used. EFS was delivered, via a pair of platinum wires, from a Grass stimulator (Model S88; Grass Instruments Co., Quincy, Mass.) connected in series to a Med-Lab […] (Med-Lab Instruments, Loveland, Colo.). […] These parameters of EFS are known to cause relaxation of IAS smooth muscle by selective activation of NANC myenteric neurons. Neurally-mediated relaxation of IAS smooth muscle strips was quantified in response to different frequencies of EFS. […] To determine the influence of arginase on NANC nerve-mediated relaxation of IAS, the effects of different doses of arginase on relaxation were first determined. […] The effectiveness of arginase inhibitors (L-OH-Arg and ABHA) on arginase-induced attenuation of EFS-induced IAS relaxation was then tested. Optimal doses of arginase and L-OH-Arg in IAS have been reported ([…] and […]. Pharmacol. Exp. Ther. 282:378-384). In order to determine the selectivity of arginase inhibitors in IAS, their effects on IAS relaxation suppressed by the NO synthase inhibitor L-NNA ([…]) were tested. […] To examine the physiological relevance of arginase inhibitors in IAS relaxation, the influence of selected concentrations of arginase inhibitors on EFS-induced IAS relaxation was examined. […] Each smooth muscle strip served as its own control. […] The results are expressed as means±standard error.

[2] = molecular target: T1, arginase (Rattus norvegicus, UniProt P07824); settings: cited from earlier work
T1 sequence (P07824 1-323): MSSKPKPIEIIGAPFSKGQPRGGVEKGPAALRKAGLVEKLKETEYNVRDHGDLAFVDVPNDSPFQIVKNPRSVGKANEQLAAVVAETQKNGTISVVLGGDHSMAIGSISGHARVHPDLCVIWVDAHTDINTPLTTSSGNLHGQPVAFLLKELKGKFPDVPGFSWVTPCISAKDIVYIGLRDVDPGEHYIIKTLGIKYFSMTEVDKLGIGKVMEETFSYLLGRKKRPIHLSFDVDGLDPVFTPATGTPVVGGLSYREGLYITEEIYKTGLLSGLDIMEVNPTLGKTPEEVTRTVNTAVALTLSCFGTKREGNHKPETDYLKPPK

[3] = molecular target: arginase; settings: read-out: Ki previously reported; cited from earlier work
[4] = molecular target: IAS arginase activity; assay: arginase activity in IAS homogenate; format: biochemical, opossum; settings: IAS; read-out: IC50 for inhibition of arginase activity, IAS homogenate
Description: (§1) Tissue samples of the opossum internal anal sphincter muscle (IAS), adjoining rectal tissue, liver, and brain were homogenized using an ULTRATURRAX™ tissue homogenizer (Tekamr, Cincinnati, Ohio) in a solution comprising 10 millimolar Tris-HCl, 150 millimolar KCl, and 25 millimolar MnCl2, at pH 7.4. The homogenates were dialyzed overnight against the same solution. Dialyzed homogenates were centrifuged to remove insoluble material and concentrated with Amicon CENTRICON™ 30 microconcentrators to yield stock protein preparations having protein concentrations of 2.4 milligrams per milliliter for IAS smooth muscle, 3.6 milligrams per milliliter for rectal smooth muscle, 3 milligrams per milliliter for brain, and 17.5 milligrams per milliliter for liver. Protein concentrations were estimated with the Pierce Coomassie Protein Reagent kit using bovine serum albumin as a standard.
(§2) Arginase activity in tissue homogenates was evaluated using the radioactive L-[guanidino^14C]arginine assay of Rüegg and Russell (1980, Anal. Biochem. 102:206-212). Assays were performed using a solution comprising 100 millimolar CHES-NaOH and 0.1 millimolar MnCl2 at pH 9.0. The reactions were initiated by addition of 5 microliters of tissue homogenate to 45 microliters of reaction mixture that contained the CHES buffer, the appropriate concentration of arginine (0.5 to 5 millimolar) and about 5.0×10^4 counts per minute of L-[guanidino-^14C]arginine. IAS, rectal muscle, and brain homogenates were incubated with the assay mixture at room temperature for one hour, and the liver sample was incubated for 5 minutes. […] Urea was separated from non-reacted L-[guanidino-^14C]arginine by treatment with 200 μl of 1:1 v/v slurry of DOWEX™ 50W-X8 in water, and quantitated by adding 200 microliters of the supernatant from the DOWEX™ treatment to 3 milliliters of LIQUISCENT™ (National Diagnostics) for liquid scintillation counting in a Beckman LS 5000CE counter. The data were analyzed using double-reciprocal plots of the initial velocity measurements; standard errors were determined by regression analysis. […]

[5] = molecular target: T2, rat liver arginase (Rattus norvegicus, UniProt P07824); assay: [14C-guanidino]-arginine arginase activity assay (Example 2); format: biochemical; settings: 100 millimolar CHES, pH 9.0, 1 millimolar arginine; read-out: IC50 for inhibition of arginase
T2 sequence (P07824 1-323): T1 sequence (P07824 1-323)
Protocol: Arginase activity was assessed using the ^(14C-guanidino)-arginine assay of Rüegg et al. (1980, Anal. Biochem. 102:206-212), as described (Reczkowski et al., 1994, Arch. Biochem. Biophys. 312:31-37). […] […] et al., 1994, Biochem. Biophys. Res.

[6] = system: liver arginase activity; assay: arginase activity in liver homogenate; format: biochemical, opossum; settings: for potency against liver arginase activity relative to non-hepatic tissues: liver versus IAS, rectum, brain
Description: as §1
(§3) Arginase activity in tissue homogenates was evaluated using the radioactive L-[guanidino^14C]arginine assay of Rüegg and Russell (1980, Anal. Biochem. 102:206-212). Assays were performed using a solution comprising 100 millimolar CHES-NaOH and 0.1 millimolar MnCl2 at pH 9.0. The reactions were initiated by addition of 5 microliters of tissue homogenate to 45 microliters of reaction mixture that contained the CHES buffer, the appropriate concentration of arginine (0.5 to 5 millimolar) and about 5.0×10^4 counts per minute of L-[guanidino-^14C]arginine. IAS, rectal muscle, and brain homogenates were incubated with the assay mixture at room temperature for one hour, and the liver sample was incubated for 5 minutes. The reactions were stopped by addition of 200 microliters of a stop solution containing 0.25 molar acetic acid, 7 molar urea, and 10 millimolar […] at pH 4.5. Arginase has essentially no activity at the low pH of the stop solution. [^14C] Urea was separated from non-reacted L-[guanidino-^14C]arginine by treatment with 200 μl of 1:1 v/v slurry of DOWEX™ 50W-X8 in water, and quantitated by adding 200 microliters of the supernatant from the DOWEX™ treatment to 3 milliliters of LIQUISCENT™ (National Diagnostics) for liquid scintillation counting in a Beckman LS 5000CE counter. The data were analyzed using double-reciprocal plots of the initial velocity measurements; standard errors were determined by regression analysis.
(§4) Assays in the presence of the inhibitors N^ω-hydroxy-L-arginine (1 to 100 micromolar) and ABHA (0.05 to 100 micromolar) were performed as described above. The amino acid D-ornithine served as a control in these experiments, since this amino acid, unlike L-omithine, is not an inhibitor of arginase.

[7] = molecular target: brain arginase activity; assay: arginase activity in brain homogenate; format: biochemical, opossum; settings: brain; read-out: IC50 for inhibition of arginase activity, brain homogenate
Description: as §1, §2

[8] = molecular target: rectum arginase activity; assay: arginase activity in rectum homogenate; format: biochemical, opossum; settings: rectum; read-out: IC50 for inhibition of arginase activity, rectum homogenate
Description: as §1, §3, §4

[9] = molecular target: T2, rat liver arginase; assay: continuous chromogenic arginase assay with substrate 1-nitro-3-guanidinobenzene (compound 18); format: biochemical; set-up: made in house; settings: for tnpseudo (moles of inhibitor/mole of arginase): 2 millimolar compound 18 as substrate, pseudo-turnover number, smaller = better inhibition
Protocol: The activity of wild-type arginase was monitored spectrophotometrically using a Pharmacia BIOTECH ULTROSPEC™ 2000. Assays were performed in a solution comprising 100 micromolar MnCl2 and 50 millimolar bicine-NaOH (pH 9.0). […] Eadie-Hofstee plots were used to analyze the data.

[10] = molecular target: T1, arginase; assay: isothermal titration calorimetry; format: binding; set-up: made in house
Protocol: All calorimetry experiments were conducted on a MCS isothermal calorimeter from MicroCal, Inc. (Northampton, Mass.). Arginase was exhaustively dialyzed against a solution comprising 100 micromolar MnCl2 and 50 millimolar bicine-NaOH (pH 8.5). […] Prior to the titration experiment, samples were de-gassed under vacuum for 5 minutes. […] The contents of the sample cell were titrated with 30-40 aliquots (2.5 microliters each) of inhibitor (an initial 1 microliters injection was made, but not used in data analysis). After each injection, the heat change was measured and converted to the corresponding enthalpy value. The reaction mixture was continuously stirred at 400 rotations per minute during titration. Control experiments were carried out by titrating the inhibitor into the buffer solution under identical experimental conditions. Data analysis was performed using ORIGIN™ software provided with the instrument. The calorimetric data are presented with the background titrations subtracted from the experimental data. The amount of heat produced per injection was calculated by integration of the area under each peak. The data were fit to the following equation, […]

[11] = molecular target: T2, rat liver arginase; assay: radioactive L-[guanidino-14C]arginine arginase assay (Example 3); format: biochemical; set-up: made in house
Protocol: Assays were performed in 100 micromolar MnCl2, 100 millimolar CHES-NaOH (pH 9.0). The reactions were initiated by addition of 5 microliters of a circa 1 unit per milliliter enzyme solution to 45 microliters of reaction mixture containing CHES buffer, 1.4 millimolar L-arginine, about 5.0×10^4 counts per minute of L-[guanidino- ^14C]arginine, and variable concentrations of the appropriate inhibitor. After a 5-15 minute reaction time, 200 microliters of a stop solution containing 7 molar urea, 10 millimolar L-arginine, and 0.25 molar acetic acid (pH 4.5) was added to the reaction (arginase has essentially no activity under these conditions). [^14C]-Urea was separated from non-reacted L-[guanidino-^14 C]arginine by treatment with 200 microliters of a 1:1 (vol/vol) slurry of DOWEX™ 50 W-X8 in water, and quantitated by adding 200 microliters of the supernatant from the DOWEX™ treatment to 3 milliliters of LIQUISCINT™ (National Diagnostics) for liquid scintillation counting in a Beckman LS5000CE counter.

SMILES: N=C(N)NCCC[C@H](N)C(=O)O [L-arginine]
reversal of L-NNA-suppressed IAS relaxation [1]: significant and concentration-dependent reversal
kcat reported ([2]; as substrate): 15,000±1200 reciprocal minutes
Km ([2]; as substrate, read-out: KM reported): 1.4 ± 0.3 mM

SMILES: N=C(NO)NCC[C@H](N)C(=O)O [N-hydroxy-nor-arginine]
Ki [3]: 0.5 µM

IC50 [4]: 25 µM
IC50 [5]: 80 µM
potency against liver arginase activity relative to non-hepatic tissues ([6]; listed as L-HO-Arg): 10-20 fold
potency against liver arginase activity relative to non-hepatic tissues ([6]; listed as N^107-hydroxy-L-arginine): about 10 fold
IC50 ([6]; liver, read-out: IC50 for inhibition of arginase activity, liver homogenate): 2400 nM
IC50 [7]: 40 µM
IC50 [8]: 42 µM
SMILES: N=C(NO)NCCC[C@H](N)C(=O)O [N-hydroxyarginine, N^ω-hydroxy-L-arginine]
decrease in IAS tension after L-HO-Arg ([1]; 0.5 Hertz EFS): 57.4±4.9%
decrease in IAS tension after L-HO-Arg ([1]; 1 Hertz EFS): 68.8±4.9%
effect on arginase-suppressed EFS-induced IAS relaxation ([1]; exogenous arginase, L-HO-Arg 1×10^−4 molar): antagonized the effect of arginase; also recorded: reversal
augmentation of NANC nerve-mediated IAS relaxation by EFS ([1]; lower frequencies of EFS, listed as L-HO-Arg): significant and concentration-dependent augmentation
reversal of L-NNA-suppressed IAS relaxation [1]: dose-dependent and complete reversal; also recorded: completely reversed
Ki [3]: 42 µM

SMILES: NC(CCCCC(N)C(=O)O)=NO (centres unmarked) [N-hydroxyindospicine]
Ki [3]: 20 µM

SMILES: NCCCC[C@H](NO)C(=O)O [N-hydroxylysine]
Ki [3]: 4 µM

SMILES: O[B-](O)(O)O [borate]
Ki ([2]; non-competitive inhibitor, read-out: KII): 260 µM
Ki ([2]; non-competitive inhibitor, read-out: KIS): 980 µM

fold less potent than compounds 7 and 15 (from tnpseudo) ([9]; substrate 18): about 400 fold
SMILES: N[C@@H](CCCB(O)O)C(=O)O [compound 12, 2(S)-amino-5-boronopentanoic acid]
tnpseudo (moles of inhibitor/mole of arginase) [9]: 420 ± 30 moles of inhibitor/mole of arginase

SMILES: N[C@@H](CSCCB(O)O)C(=O)O [compound 15, S-(2-boronoethyl)-L-cysteine]
Kd [10]: 2220 nM
association constant (Ka) ([10]; pH 8.5, 25° C.): 4.50×10^5 inverse molar
enthalpy change (ΔH) of binding ([10]; pH 8.5, 25° C.): −12.75 kilocalories per mole
stoichiometry (n), moles bound per mole of arginase monomer ([10]; pH 8.5, 25° C.): 0.96 and 0.964
Ki [11]: 700 nM
tnpseudo (moles of inhibitor/mole of arginase) [9]: 1.00 ± 0.004 moles of inhibitor/mole of arginase

Ki ([9]; assay with substrate 18, assuming competitive inhibition): 420 µM
SMILES: N[C@@H](CSCC[Si](O)(O)O)C(=O)O [compound 16, S-(2-trihydroxysilylethyl)-L-cysteine]

kcat for arginase-catalyzed hydrolysis ([9]; as substrate, monomer 35 kilodaltons): 0.09±0.02 reciprocal minutes
SMILES: N=C(N)Nc1cccc([N+](=O)[O-])c1 [compound 18, 1-nitro-3-guanidinobenzene]

SMILES: NCCC[C@H](N)C(=O)O [ornithine]
Ki ([2]; read-out: Ki): 1000 µM
